# Measurements reported in PubChem BioAssay (NCI).
#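 Grown in 96-well plates, cells were treated for 48 hours with each compound at five concentrations. Insufficient inhibition: endpoint recorded as highest concentration tested. TGI denotes the concentration required for complete inhibition of growth.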
# Assays:
# Test in all cases: NCI tumour cell line growth inhibition, 48 h
# 786-0 renal = tested on: 786-0 renal
# A498 renal = tested on: A498 renal
# A549 NSCLC = tested on: A549 NSCLC
# ACHN renal = tested on: ACHN renal
# BT-549 breast = tested on: BT-549 breast
# CAKI-1 renal = tested on: CAKI-1 renal
# CCRF-CEM leukemia = tested on: CCRF-CEM leukemia
# COLO 205 colon = tested on: COLO 205 colon
# DU-145 prostate = tested on: DU-145 prostate
# HCT-116 colon = tested on: HCT-116 colon
# HCT-15 colon = tested on: HCT-15 colon
# HL-60(TB) leukemia = tested on: HL-60(TB) leukemia
# HOP-62 NSCLC = tested on: HOP-62 NSCLC
# HOP-92 NSCLC = tested on: HOP-92 NSCLC
# HS 578T breast = tested on: HS 578T breast
# IGROV1 ovarian = tested on: IGROV1 ovarian
# K-562 leukemia = tested on: K-562 leukemia
# LOX IMVI melanoma = tested on: LOX IMVI melanoma
# M14 melanoma = tested on: M14 melanoma
# MALME-3M melanoma = tested on: MALME-3M melanoma
# MCF7 breast = tested on: MCF7 breast
# MDA-MB-231 breast = tested on: MDA-MB-231 breast
# MDA-MB-435 = tested on: MDA-MB-435
# MDA-N = tested on: MDA-N
# MOLT-4 leukemia = tested on: MOLT-4 leukemia
# NCI-H226 lung = tested on: NCI-H226 lung
# NCI-H23 lung = tested on: NCI-H23 lung
# NCI-H460 lung = tested on: NCI-H460 lung
# NCI-H522 lung = tested on: NCI-H522 lung
# NCI/ADR-RES ovarian = tested on: NCI/ADR-RES ovarian
# OVCAR-3 ovarian = tested on: OVCAR-3 ovarian
# OVCAR-4 ovarian = tested on: OVCAR-4 ovarian
# OVCAR-5 ovarian = tested on: OVCAR-5 ovarian
# OVCAR-8 ovarian = tested on: OVCAR-8 ovarian
# PC-3 prostate = tested on: PC-3 prostate
# RPMI-8226 leukemia = tested on: RPMI-8226 leukemia
# RXF 393 renal = tested on: RXF 393 renal
# SF-268 CNS = tested on: SF-268 CNS
# SF-295 CNS = tested on: SF-295 CNS
# SF-539 CNS = tested on: SF-539 CNS
# SK-MEL-2 melanoma = tested on: SK-MEL-2 melanoma
# SK-MEL-28 melanoma = tested on: SK-MEL-28 melanoma
# SK-MEL-5 melanoma = tested on: SK-MEL-5 melanoma
# SK-OV-3 ovarian = tested on: SK-OV-3 ovarian
# SN12C renal = tested on: SN12C renal
# SNB-19 CNS = tested on: SNB-19 CNS
# SNB-75 CNS = tested on: SNB-75 CNS
# SR leukemia = tested on: SR leukemia
# SW-620 colon = tested on: SW-620 colon
# T-47D breast = tested on: T-47D breast
# U251 CNS = tested on: U251 CNS
# UACC-257 melanoma = tested on: UACC-257 melanoma
# UO-31 renal = tested on: UO-31 renal
# EKVX NSCLC = tested on: EKVX NSCLC
# HT29 colon = tested on: HT29 colon
# KM12 colon = tested on: KM12 colon
# TK-10 renal = tested on: TK-10 renal
# UACC-62 melanoma = tested on: UACC-62 melanoma
smiles,measurement,setting,value
Oc1cc(O)c2c(c1)O[C@H](c1cc(O)c(O)c(O)c1)[C@H](O)C2,TGI,786-0 renal,33.5 µM
same,TGI,A498 renal,> 100 µM
same,TGI,A549 NSCLC,76.7 µM
same,TGI,ACHN renal,48.9 µM
same,TGI,BT-549 breast,56.6 µM
same,TGI,CAKI-1 renal,> 100 µM
same,TGI,CCRF-CEM leukemia,42.4 µM
same,TGI,COLO 205 colon,33.2 µM
same,TGI,DU-145 prostate,> 100 µM
same,TGI,HCT-116 colon,40.3 µM
same,TGI,HCT-15 colon,> 100 µM
same,TGI,HL-60(TB) leukemia,42.2 µM
same,TGI,HOP-62 NSCLC,37.3 µM
same,TGI,HOP-92 NSCLC,> 100 µM
same,TGI,HS 578T breast,> 100 µM
same,TGI,IGROV1 ovarian,41.9 µM
same,TGI,K-562 leukemia,48.4 µM
same,TGI,LOX IMVI melanoma,77.6 µM
same,TGI,M14 melanoma,> 100 µM
same,TGI,MALME-3M melanoma,> 100 µM
same,TGI,MCF7 breast,40.1 µM
same,TGI,MDA-MB-231 breast,33.6 µM
same,TGI,MDA-MB-435,25.4 µM
same,TGI,MDA-N,40.9 µM
same,TGI,MOLT-4 leukemia,32.9 µM
same,TGI,NCI-H226 lung,> 100 µM
same,TGI,NCI-H23 lung,65.3 µM
same,TGI,NCI-H460 lung,38.5 µM
same,TGI,NCI-H522 lung,38.1 µM
same,TGI,NCI/ADR-RES ovarian,63.8 µM
same,TGI,OVCAR-3 ovarian,> 100 µM
same,TGI,OVCAR-4 ovarian,46.6 µM
same,TGI,OVCAR-5 ovarian,32 µM
same,TGI,OVCAR-8 ovarian,29.6 µM
same,TGI,PC-3 prostate,42.9 µM
same,TGI,RPMI-8226 leukemia,31.7 µM
same,TGI,RXF 393 renal,29.6 µM
same,TGI,SF-268 CNS,61.2 µM
same,TGI,SF-295 CNS,83.7 µM
same,TGI,SF-539 CNS,48.7 µM
same,TGI,SK-MEL-2 melanoma,28.9 µM
same,TGI,SK-MEL-28 melanoma,> 100 µM
same,TGI,SK-MEL-5 melanoma,37.6 µM
same,TGI,SK-OV-3 ovarian,56.7 µM
same,TGI,SN12C renal,37 µM
same,TGI,SNB-19 CNS,> 100 µM
same,TGI,SNB-75 CNS,98 µM
same,TGI,SR leukemia,27.6 µM
same,TGI,SW-620 colon,32.9 µM
same,TGI,T-47D breast,80.7 µM
same,TGI,U251 CNS,30.4 µM
same,TGI,UACC-257 melanoma,> 100 µM
same,TGI,UO-31 renal,39.4 µM
CC[N+](C)(CC)Cc1ccccc1[N+](=O)[O-],TGI,786-0 renal,> 100 µM
same,TGI,A498 renal,> 100 µM
same,TGI,A549 NSCLC,> 100 µM
same,TGI,ACHN renal,> 100 µM
same,TGI,BT-549 breast,> 100 µM
same,TGI,CAKI-1 renal,> 100 µM
same,TGI,CCRF-CEM leukemia,> 100 µM
same,TGI,COLO 205 colon,> 100 µM
same,TGI,DU-145 prostate,> 100 µM
same,TGI,EKVX NSCLC,> 100 µM
same,TGI,HCT-116 colon,> 100 µM
same,TGI,HCT-15 colon,> 100 µM
same,TGI,HL-60(TB) leukemia,> 100 µM
same,TGI,HOP-62 NSCLC,> 100 µM
same,TGI,HOP-92 NSCLC,> 100 µM
same,TGI,HS 578T breast,> 100 µM
same,TGI,HT29 colon,> 100 µM
same,TGI,IGROV1 ovarian,> 100 µM
same,TGI,K-562 leukemia,> 100 µM
same,TGI,KM12 colon,> 100 µM
same,TGI,LOX IMVI melanoma,> 100 µM
same,TGI,M14 melanoma,> 100 µM
same,TGI,MALME-3M melanoma,> 100 µM
same,TGI,MCF7 breast,> 100 µM
same,TGI,MDA-MB-231 breast,> 100 µM
same,TGI,MDA-MB-435,> 100 µM
same,TGI,MDA-N,> 100 µM
same,TGI,MOLT-4 leukemia,> 100 µM
same,TGI,NCI-H226 lung,> 100 µM
same,TGI,NCI-H23 lung,> 100 µM
same,TGI,NCI-H460 lung,> 100 µM
same,TGI,NCI-H522 lung,> 100 µM
same,TGI,NCI/ADR-RES ovarian,> 100 µM
same,TGI,OVCAR-3 ovarian,73.7 µM
same,TGI,OVCAR-4 ovarian,> 100 µM
same,TGI,OVCAR-5 ovarian,> 100 µM
same,TGI,OVCAR-8 ovarian,> 100 µM
same,TGI,PC-3 prostate,> 100 µM
same,TGI,RPMI-8226 leukemia,> 100 µM
same,TGI,RXF 393 renal,> 100 µM
same,TGI,SF-268 CNS,> 100 µM
same,TGI,SF-295 CNS,> 100 µM
same,TGI,SF-539 CNS,> 100 µM
same,TGI,SK-MEL-2 melanoma,> 100 µM
same,TGI,SK-MEL-28 melanoma,> 100 µM
same,TGI,SK-MEL-5 melanoma,> 100 µM
same,TGI,SK-OV-3 ovarian,> 100 µM
same,TGI,SN12C renal,> 100 µM
same,TGI,SNB-75 CNS,> 100 µM
same,TGI,SR leukemia,> 100 µM
same,TGI,SW-620 colon,> 100 µM
same,TGI,T-47D breast,> 100 µM
same,TGI,TK-10 renal,> 100 µM
same,TGI,U251 CNS,> 100 µM
same,TGI,UACC-257 melanoma,> 100 µM
same,TGI,UACC-62 melanoma,> 100 µM
same,TGI,UO-31 renal,> 100 µM
